From patent US10398661B2, “Methods for classifying a cancer as susceptible to TMEPAI-directed therapies and treating such cancers” (THE BOARD OF REGENTS OF THE UNIVERSITY OF TEXAS SYSTEM, priority 2013, dated 2019)

Key:
[1] = tested on: TMEPAI; experiment: TMEPAI mRNA (QPCR) and protein expression in MDA-MB-231 cells with TGF-β; format: cell-based, human
Excerpt: (§1) FIGS. 1A-B: Relative expression of TMEPAI mRNA and protein in normal and cancer cells. FIG. 1A. Effect of TGF-β on TMEPAI mRNA expression by QPCR in normal human mammary epithelial (HMEC) and MDA-MB-231 breast cancer cells, which is inhibited by TGF-β receptor I kinase inhibitor SB431542 (SB). FIG. 1B. Relative expression of TMEPAI protein in HMEC and MDA-MB-231 cells without or with TGF-β stimulation.
(§2) TMEPAI Expression in Normal Mammary Epithelial Cells Vs Breast Cancer Cells. […] The inventors tested the expression of TMEPAI in various breast cancer lines by immunoblotting. […] Moreover, TMEPAI is also expressed by aggressive HER2-positive breast cancer cells that either coexpress estrogen receptor (BT-474) or not (SK-BR-3) (FIG. 2).

[2] = tested on: normal mammary epithelial cells MCF-10A; experiment: Growth of normal mammary epithelial MCF-10A cells with celastrol; format: cell-based; settings: 1 μM
Excerpt: FIGS. 10A-D: Celastrol is novel inhibitor of TMEPAI expression and cancer cell growth by enhancing growth suppressive TGF-β signaling. FIG. 10A. […] FIG. 10B. Celastrol had no effect on the growth of normal mammary epithelial cells MCF-10A. FIG. 10C. Celastrol inhibited non-Smad signaling (left panel) and enhanced Smad signaling (right panel) by inhibiting TMEPAI expression. FIG. 10D. Celastrol enhanced Smad signaling as measured by 12XCAGA-Luciferase reporter assay.
Terpinoid Derivative Celastrol Blocked TMEPAI Expression and Reversed TMEPAI Mediated Effects. The inventors identified tripterine (celastrol), a triterpinoid, having the ability to block TGF-β induced TMEPAI expression after screening several terpinoid derivatives with reactive α,β-unsaturated ketones in their structure. […] Only a mild decrease in the proliferation of normal MCF-10A cells was observed even at a 10-fold higher dose of celastrol (not shown). […] Equally, celastrol inhibited non-Smad signaling (FIG. 10C, left panel). The enhancement of Smad signaling is also confirmed by increased 12XCAGA-luciferase reporter activity (FIG. 10D).

[3] = tested on: MDA-MB-231 tumors; experiment: Subcutaneous MDA-MB-231 tumors in athymic mice treated with celastrol; format: in vivo; settings: 2 mg/kg, 3 times a week for 4 weeks
Protocol: (§3) FIG. 11A. athymic mice bearing subcutaneous MDA-MB-231 tumors that were treated for 3 times a week for 4 consecutive weeks with 2 mg/kg celastrol or vehicle alone. FIG. 11B. Tumor weights following celastrol treatment, P<0.001. […] FIG. 11C. […] Toxicity of celastrol administered was monitored by measuring total body weight.
(§4) Pharmacological Inhibition of TMEPAI Expression Reduces Tumor Growth In Vivo. […] Compared to vehicle-treatment, celastrol treatment led to a ˜6-fold reduction in tumor burden (FIG. 11B). […] Thus, these preclinical studies confirm that TMEPAI expressing breast cancers thrive by suppressing tumor suppressive TGF-β signaling and are therefore susceptible to pharmacological inhibition of TMEPAI expression by celastrol.

[4] = Total body weight of tumor-bearing mice treated with celastrol (toxicity); format: in vivo; settings: 2 mg/kg
Protocol: as §3, §4

[5] = Body weights of xenograft-bearing nude mice treated with CLST-NP or CLST (toxicity); format: in vivo; settings: doses administered: 0.2 mg/kg CLST-NP, 2 mg/Kg CLST
Protocol: (FIG. 12A) Representative pictures of tumors excised from nude mice that harbored xenografts of human breast cancer cells (MDA-MB-231). (Veh-NP) 2 mg/kg drug-free liposomes, 0.2 mg/kg celastrol containing liposomes (CLST-NP) or 2 mg/Kg celastrol alone (CLST) were administered by intraperitoneal injection every alternate day for first week and every 2 day interval for following week for a total of two weeks period. (FIG. 12B) Tumor weights were shown *p<0.01 versus Vehicle control group. (FIG. 12C) Tumor volumes measured before sacrificing the animals. * p<0.01 versus Vehicle control group. (FIG. 12D) Similarities in body weights of animals treated with vehicle or drugs indicate non-toxicity of CLST-NP and CLST at the doses administered.
Similarities in body weights of animals treated with vehicle or drugs indicate non-toxicity of CLST-NP and CLST at the doses administered.

[6] = cited from earlier work
[7] = tested on: TMEPAI; experiment: TMEPAI RNA and protein expression in normal human mammary epithelial cells (HMEC) with TGF-β; format: cell-based; settings: in response to TGF-β
Excerpt: as §1, §2

[8] = MDA-MB-231 cells, within 6 h of treatment

NC(=O)c1ccc(-c2nc(-c3ccc4c(c3)OCO4)c(-c3ccccn3)[nH]2)cc1 [SB431542]
effect of TGF-β on TMEPAI mRNA expression by QPCR in presence of inhibitor ([1]; HMEC and MDA-MB-231 cells): inhibited

CC1=C(O)C(=O)C=C2C1=CC=C1[C@@]2(C)CC[C@@]2(C)[C@@H]3C[C@](C)(C(=O)O)CC[C@]3(C)CC[C@]12C [celastrol]
growth of normal MCF-10A cells [2]: no effect | reduction in tumor burden compared to vehicle-treatment (tumor weights) [3]: ~6 fold | luminescence signal in the tumors ([3]; MDA-MB-231 cells expressing GFP-luciferase): 500-2500 RLU | total body weights of mice versus vehicle [4]: remained the same | toxic effects at the dose given to mice [4]: no toxic effects | toxicity judged from body weights similar to vehicle [5]: non-toxicity | aqueous solubility [6]: low

TGF-β
induction of TMEPAI RNA and proteins [7]: poorly induced | induction of TMEPAI mRNA [1, 8]: > 40 fold | induction of TMEPAI proteins [1, 8]: ~9 fold
